Test results reported in patent publication US20120020915A1, “Compounds and Methods for Treating Cancer and Diseases of the Central Nervous System” (QUEENS UNIVERSITY AT KINGSTON, priority 2007, published 2012).
Entries after “also recorded” stand apart in the source; their conditions may differ.

How the values were obtained:
[1] = test system: human pancreatic tumor cells; experiment: Cell proliferation assay ([3H] thymidine incorporation), pancreatic tumor cells; assay type: cell-based; details: 6.5 μM, 18 h
rat C6 glioma cells = experiment: Cell proliferation assay ([3H] thymidine incorporation), C6 glioma cells; assay type: cell-based; details: 6.5 μM, 18 h, hHO-1 transfected rat C6 glioma cells; hydrochloride
Protocol: Rat C6 glioma cells were cultivated in high glucose DMEM supplemented with 10% heat-inactivated fetal bovine serum, […] glutamine, and penicillin-streptomycin (50 U/mL and 50 μg/in L, respectively). […] All cultures were incubated at 37° C. in humidified 95% air-5% CO2.
Cells were seeded in 24-well plates at 1×10^6 cells/mL/well. Upon reaching >90% confluence, cells in each well were transiently transfected with 1.6 μg of plasmid DNA-Lipofectamine 2000 complex using Lipofectamine 2000 method according to manufacturer instructions (Invitrogen). 1.6 μg of plasmid DNA and 4 μL of Lipofectamine 2000 reagent were diluted individually in 100 μL opti-MEM I and incubated for 5 minutes at room temperature with gentle mixing. […]
Cell proliferation was determined by [^3H] thymidine incorporation: Cells were plated in 24-well plates at 10^6 cells/mL/well in complete medium. […] The cells were trypsinized and collected, air-dried on 21 mm glass microfibre filters (Whatman International Ltd., Maidstone, England) and analyzed by scintillation counting in a Wallac-Liquid Scintillator Counter (Perkin Elmer Life Sciences, Boston, Mass., USA). [^3H] thymidine incorporation was expressed as counts per min (cpm) per mL.

[2] = Toxicity / tolerability of QC-56 in SCID mice (pilot study); assay type: in vivo
Text: IV.I (iii) Bioassay Species and strain: Mouse (Mus musculus); SCID, male Age at dosing initiation: 8 weeks old.
Once tumors became palpable, mice were randomized into experimental groups and the treatment was initiated.

[3] = test system: SKMEL-V human melanoma cells; experiment: Human melanoma model SKMEL-V+ in SCID mice (pilot study), tumor growth; assay type: in vivo, Mouse (Mus musculus); SCID
Text: Human melanoma cells (“SKMEL-V cells”) were derived from SKMEL-24 cells (ATCC) by over expression of mouse VEGF.
Only those cells with >95% viability were used for in-viva studies.
Once tumors reached a size of approximately 0.7 cm^3, they were removed under sterile condition, sliced into small pieces under a stereo-microscope. Each tissue piece was then re-inoculated subcutaneously. Only pieces of approximately the same size and with no signs of necrosis were used.
All data in this study are presented as mean±SE. Statistical analyses were performed by one-way ANOVA followed by Newman-Keuls post-hoc comparisons to assess significant main effects within groups. Statistical significance was set at p<0.05.

[4] = assay type: in vivo
Text: Control groups received the vehicle alone.

HO-1 (rat spleen) = target: T1, HO-1 (rat spleen) (Rattus norvegicus, UniProt P06762); experiment: HO enzymatic activity, rat spleen microsomal fraction (CO formation from methemalbumin); assay type: biochemical; details: CO formation from methemalbumin, mean ± SD of replicate experiments, read-out: IC50 HO-1 (rat spleen/μM)
T1 construct: Spleen microsomes were used as a source of HO-1; from tissue; host or cells: spleen microsomal fraction of adult male Sprague-Dawley rats
T1 sequence (P06762 1-289): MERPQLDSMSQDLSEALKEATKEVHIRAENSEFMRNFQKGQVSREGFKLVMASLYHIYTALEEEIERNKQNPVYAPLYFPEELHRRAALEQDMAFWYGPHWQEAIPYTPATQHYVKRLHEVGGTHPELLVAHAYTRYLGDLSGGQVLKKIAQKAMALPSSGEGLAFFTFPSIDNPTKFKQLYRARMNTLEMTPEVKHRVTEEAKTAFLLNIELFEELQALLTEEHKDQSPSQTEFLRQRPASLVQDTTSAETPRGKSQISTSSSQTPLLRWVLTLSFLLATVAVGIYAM

Row | IC50 (HO-1 (rat spleen)) | Structure (SMILES) | 3H-thymidine incorporation, non-transfected cells ([1]; compared to untreated cells, hydrochloride) | 3H-thymidine incorporation, hHO-1 transfected cells ([1]; hHO-1 transfected human pancreatic tumor cells) | 3H-thymidine incorporation, hHO-1 transfected cells (rat C6 glioma cells) | tolerability after multiple administrations ([2]; 50 mg/kg) | tolerability at repeated doses ([2]; 30 and 60 mg/kg, intraperitoneal, hydrochloride) | toxic single dose ([2]; intraperitoneally, single dose) | tumor volume compared with vehicle alone ([3]; 30 mg/kg (P<0.03)) | tumor volume compared with vehicle alone ([3]; 60 mg/kg (P<0.02)) | toxicity in the combination study ([4]; QC-56 60 mg/kg ip, 4 cycles, chemotherapy drugs ip) | tolerability at multiple doses up to 100 mg/kg ([4]; multiple doses up to 100 mg/kg, intraperitoneal and intravenous routes, hydrochloride)
1 | – | Brc1ccc(CCC2(Cn3ccnc3)OCCO2)cc1.Cl [QC-56, 1-((2-(2-(4-Bromophenyl)ethyl)-1,3-dioxolan-2-yl)methyl)-1H-imidazole hydrochloride] | significantly attenuated ^3H-thymidine incorporation; also recorded: marked reduction in the rate of cellular proliferation | significantly attenuated the effects of hHO-1 transfection on ^3H-thymidine incorporation | significantly attenuated the effects of hHO-1 transfection on ^3H-thymidine incorporation; also recorded: this rate of proliferation was attenuated | well tolerated | well tolerated at repeated doses of 30 and 60 mg/kg with minor changes in body weights with no apparent toxicity; also recorded: well tolerated | ≥ 100 mg/kg | statistically significantly smaller | statistically significantly smaller | No apparent toxicity | well tolerated with no apparent signs of toxicity; also recorded: well tolerated
2 | 6 ± 3 µM | Cl.FC[C@@H]1CO[C@@](CCc2ccc(Cl)cc2)(Cn2ccnc2)O1 [QC-47, (2R,4S)-1-{2-[2-(4-Chlorophenyl)ethyl]-4-fluoromethyl-[1,3]dioxolan-2-ylmethyl}-1H-imidazole hydrochloride] | – | – | – | – | – | – | – | – | – | –
